Numbering of substitutions follows the chain as printed. Where two headings read alike, the source gives them in different places.
How the values were obtained:
Format in all cases: cell-based
OR2W1 wt = molecular target: T1, OR2W1 wt (Homo sapiens, UniProt Q9Y3N9); assay: cAMP-luminescence GloSensor assay, recombinant OR2W1 wt
T1 construct: 39aa rho-tag; expressed in transfected cells; host or cells: NxG 108CC15 or HEK-293 cells
T1 sequence (Q9Y3N9 1-320): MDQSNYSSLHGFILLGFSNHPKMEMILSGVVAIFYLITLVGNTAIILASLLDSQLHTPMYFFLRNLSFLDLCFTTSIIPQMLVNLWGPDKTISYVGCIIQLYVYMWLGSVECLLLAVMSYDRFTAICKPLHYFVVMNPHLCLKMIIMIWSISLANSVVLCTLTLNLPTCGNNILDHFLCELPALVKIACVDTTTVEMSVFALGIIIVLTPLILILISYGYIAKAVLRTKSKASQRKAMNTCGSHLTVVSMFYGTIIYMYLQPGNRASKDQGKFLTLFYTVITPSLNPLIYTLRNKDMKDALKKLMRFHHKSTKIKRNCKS
Method: (§1) The assay was performed as reported above.
(§2) All data are presented as mean ± SD.

OR1A1 wt = molecular target: T2, OR1A1 wt (Homo sapiens, UniProt Q9P1Q5); assay: cAMP-luminescence GloSensor assay, recombinant OR1A1 wt; details: for EC50: OR1A1 wt
T2 construct: 39aa rho-tag; expressed in transfected cells; host or cells: NxG 108CC15 or HEK-293 cells
T2 sequence (Q9P1Q5 1-309): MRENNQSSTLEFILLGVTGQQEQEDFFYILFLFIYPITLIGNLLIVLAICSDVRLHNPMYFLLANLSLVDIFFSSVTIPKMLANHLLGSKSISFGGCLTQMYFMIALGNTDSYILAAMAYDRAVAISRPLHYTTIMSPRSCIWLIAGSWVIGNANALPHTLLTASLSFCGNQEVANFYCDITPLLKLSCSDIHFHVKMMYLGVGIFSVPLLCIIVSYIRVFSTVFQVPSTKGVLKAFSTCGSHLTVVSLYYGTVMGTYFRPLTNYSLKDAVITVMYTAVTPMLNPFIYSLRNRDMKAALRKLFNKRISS
Method: as §1, §2

OR2W1 L202S = molecular target: T3, OR2W1 L202S (Homo sapiens, UniProt Q9Y3N9, L202S); assay: GloSensor assay, OR2W1 L202S
T3 construct: 39aa rho-tag; expressed in transfected cells; host or cells: NxG 108CC15 or HEK-293 cells
T3 sequence (Q9Y3N9 1-320 L202S): T1 sequence (Q9Y3N9 1-320) with L202S
Method: (§3) All receptor variants used were generated by PCR-based site-directed mutagenesis in two steps. Gene-specific primers (mutation primers) were used according to Table S2 and Table S3. The mutation primers, which carried the changed nucleotides, were designed overlapping.
as §1, §2

OR2W1 L202C = molecular target: T4, OR2W1 L202C (Homo sapiens, UniProt Q9Y3N9, L202C); assay: GloSensor assay, OR2W1 L202C
T4 construct: full-length gene-specific forward and reverse primers were added; 39aa rho-tag; expressed in transfected cells; host or cells: NxG 108CC15 or HEK-293 cells
T4 sequence (Q9Y3N9 1-320 L202C): T1 sequence (Q9Y3N9 1-320) with L202C
Method: as §3, §1, §2

OR2W1 S109A = molecular target: T5, OR2W1 S109A (Homo sapiens, UniProt Q9Y3N9, S109A); assay: GloSensor assay, OR2W1 S109A
T5 construct: 39aa rho-tag; expressed in transfected cells; host or cells: NxG 108CC15 or HEK-293 cells
T5 sequence (Q9Y3N9 1-320 S109A): T1 sequence (Q9Y3N9 1-320) with S109A
Method: as §3, §1, §2

OR2W1 Y252A = molecular target: T6, OR2W1 Y252A (Homo sapiens, UniProt Q9Y3N9, Y252A); assay: GloSensor assay, OR2W1 Y252A; details: ligands 300 µmol/L
T6 construct: 39aa rho-tag; expressed in transfected cells; host or cells: NxG 108CC15 or HEK-293 cells
T6 sequence (Q9Y3N9 1-320 Y252A): T1 sequence (Q9Y3N9 1-320) with Y252A
Method: as §3, §1, §2

OR2W1 Y259A = molecular target: T7, OR2W1 Y259A (Homo sapiens, UniProt Q9Y3N9, Y259A); assay: GloSensor assay, OR2W1 Y259A; details: ligands 300 µmol/L
T7 construct: full-length gene-specific forward and reverse primers were added; 39aa rho-tag; expressed in transfected cells; host or cells: NxG 108CC15 or HEK-293 cells
T7 sequence (Q9Y3N9 1-320 Y259A): T1 sequence (Q9Y3N9 1-320) with Y259A
Method: as §3, §1, §2

OR2W1 Y252A/Y259A = molecular target: T8, OR2W1 Y252A/Y259A (Homo sapiens, UniProt Q9Y3N9, Y252A/Y259A); assay: GloSensor assay, OR2W1 Y252A/Y259A; details: ligands 300 µmol/L
T8 construct: full-length gene-specific forward and reverse primers were added; 39aa rho-tag; expressed in transfected cells; host or cells: NxG 108CC15 or HEK-293 cells
T8 sequence (Q9Y3N9 1-320 Y252A/Y259A): T1 sequence (Q9Y3N9 1-320) with Y252A, Y259A
Method: as §3, §1, §2

[1] = molecular target: sphingosine-1-phosphate receptor 4 (S1P4); assay: cAMP-luminescence GloSensor assay, endogenously expressed S1P4; details: footnote b: EC50 in nmol/L
Method: as §1, §2

OR2T11 C119R = molecular target: T9, OR2T11 C119R (Homo sapiens, UniProt Q8NH01, C119R); assay: GloSensor assay, OR2T11 C119R
T9 construct: expressed in transfected cells; host or cells: NxG 108CC15 or HEK-293 cells
T9 sequence (Q8NH01 whole entry C119R): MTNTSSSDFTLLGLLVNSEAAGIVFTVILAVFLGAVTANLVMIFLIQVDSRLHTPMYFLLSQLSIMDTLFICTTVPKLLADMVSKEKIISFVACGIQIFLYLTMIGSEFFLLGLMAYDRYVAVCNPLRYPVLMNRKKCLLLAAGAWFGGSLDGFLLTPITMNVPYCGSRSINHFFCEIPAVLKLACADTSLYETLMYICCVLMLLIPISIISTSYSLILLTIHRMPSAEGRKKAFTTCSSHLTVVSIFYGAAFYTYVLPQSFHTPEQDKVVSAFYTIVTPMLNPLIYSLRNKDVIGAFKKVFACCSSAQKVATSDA
Excerpt: as §2
Concentration-response relation of 3-mercapto-2-methylpentan-1-ol on OR2M3 in the absence or presence of each 30 µmol/L CuCl2 (a), and 30 µmol/L CuCl2 and the copper chelator TEPA (b). Concentration-response relation of 2-methylpropane-2-thiol on OR2T11 C119R in the absence or presence of 30 µmol/L CuCl2 (c). Concentration-response relation of 3-mercapto-2-methylpentan-1-ol on OR2M3 in the absence or presence of each 30 µmol/L FeCl3 (d); NiCl2 (e); CoCl2 (f); ZnSO4 (g); AgAc (h); AgNO3 (i) and colloidal silver (j). Comparison of efficacies of 20 µmol/L 3-mercapto-2-methylpentan-1-ol on OR2M3 in the absence or presence of different metal ions at 30 µmol/L (k). Note that the same data set in the absence of supplemented Cu^2+ (grey) is given in sub-panels (a-b, d-j) for didactic reasons. Data were mock control-subtracted, normalized to the OR2M3 wt signal in response to 3-mercapto-2-methylpentan-1-ol (20 µmol/L), measured in the absence of Cu^2+ (a-b, d-k) or rather normalized to the OR2T11 C119R signal in response to 2-methylpropan-2-thiol (100 µmol/L), measured in the presence of Cu^2+ (c), and shown as mean ± SD (n = 3 – 6). RLU = relative luminescence unit. 3MMP = 3-mercapto-2-methylpentan-1-ol. Note that for didactical reasons the concentration-response relations in Fig. 1b and Fig. S5a are the identical data set. […]

[2] = 10 µmol/L Cu^2+, read-out: EC50 in the presence of Cu^2+
[3] = mean ± SD (n = 3–5), read-out: EC50 in the absence of Cu^2+
[4] = read-out: EC50 in the absence of Cu^2+
[5] = EC50 in the presence of Cu^2+, 10 µmol/L Cu^2+

Row | Structure (SMILES) | EC50 (OR2W1 wt; [2]) [µM] | EC50 (OR2W1 wt; [3]) [µM] | EC50 (OR1A1 wt; [2]) [µM] | EC50 (OR1A1 wt; [4]) [µM] | EC50 (OR2W1 L202S; [2]) [µM] | EC50 (OR2W1 L202S; [4]) [µM] | EC50 (OR2W1 L202C; [2]) [µM] | EC50 (OR2W1 L202C; [4]) [µM] | EC50 (OR2W1 S109A; [2]) [µM] | EC50 (OR2W1 S109A; [4]) [µM] | agonist function in mutant receptor (OR2W1 Y252A) | agonist function in mutant receptor (OR2W1 Y259A) | agonist function in mutant receptor (OR2W1 Y252A/Y259A) | other results
1 | SCCc1ccccc1 [2-Phenylethanethiol, 2-phenylethanethiol] | 106.2 ± 0.93 | 37.8 ± 0.62 | 73.1 ± 16.4 | 206 ± 21.5 | 96.7 ± 4.66 | 97 ± 13 | 63.4 ± 3.77 | 65.1 ± 10.8 | 38.9 ± 5.38 | 34.4 ± 9.98 | non-functional | non-functional | non-functional | efficacy in activating OR1A1 (OR1A1 wt; presence of Cu^2+ at 10 µmol/L): reduced
2 | COCCN=C1S/C(=C\c2cc(C)n(-c3ccc(F)cc3F)c2C)C(=O)N1C [CYM50308] |  |  |  |  |  |  |  |  |  |  |  |  |  | EC50 [1, 2]: 0.344 ± 0.091 µM; EC50 [1, 4]: 0.517 ± 0.0746 µM
3 | CCCC(S)CCOC(C)=O (stereo not drawn) [3-Mercaptohexyl acetate, 3-mercaptohexyl acetate] | 121 ± 1.59 | 132 ± 20.9 | 354 ± 113 | 405 ± 86.7 | 311 ± 22.1 | 146 ± 6.48 | 114 ± 10.5 | 98.9 ± 7.49 | 127 ± 84.9 | 146 ± 23 | non-functional | non-functional | non-functional | 
4 | CC(C)(C)S [2-methylpropane-2-thiol] |  |  |  |  |  |  |  |  |  |  |  |  |  | Relative amplitude (OR2T11 C119R; 30 µmol/L CuCl2, normalized to OR2T11 C119R signal (100 µmol/L agonist) in the presence of Cu^2+): 1; EC50 (OR2T11 C119R; presence of 30 µmol/L CuCl2 (footnote d)): 0.25 ± 0.19 µM
5 | C=CCOC(=O)Cc1ccccc1 [Allyl phenyl acetate, allyl phenyl acetate] |  |  |  |  |  |  |  |  |  |  | non-functional | non-functional | non-functional | EC50 (OR2W1 wt; EC50 in the absence of Cu^2+, mean ± SD (n = 3–5)): 64.4 ± 3.58 µM; EC50 (OR2W1 wt; [5]): 55.2 ± 8.59 µM; EC50 (OR2W1 L202S; EC50 in the absence of Cu^2+): 37.6 ± 11.7 µM; EC50 (OR2W1 L202S; [5]): 46 ± 14.3 µM; EC50 (OR2W1 L202C; EC50 in the absence of Cu^2+): 130 ± 82.5 µM; EC50 (OR2W1 L202C; [5]): 73 ± 42.1 µM; EC50 (OR2W1 S109A; EC50 in the absence of Cu^2+): 46 ± 11.6 µM; EC50 (OR2W1 S109A; [5]): 119 ± 19.9 µM

Reference: article PMC7256108 (Cellular and Molecular Life Sciences: CMLS, 2019)
